These results are taken from ChEMBL document CHEMBL1201862, “PubChem BioAssay data set” (2004).

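48-hour exposure; five concentrations; linearly interpolated endpoints. GI50 is the concentration that inhibits growth by half.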 The source made the active and inactive calls. No stated cut-off is given here; in the data, active = GI50 up to about 1.1 µM and inactive = higher.

Test in all cases: inhibition of tumour cell growth, NCI panel, 48 h
Test [1] has as its system KM-20L2.
For test [2], the system named is DMS-273.
For test [3], the system named is DLD-1.
Test [4] has as its system M19-MEL.
In test [5] the test system is XF498.
In test [6] the test system is LXFL 529.
Test [7] deals with SNB-78.
The test system of test [8] is DMS-114.
Test [9] concerns RXF 631.

Regarding `Cc1cccc(/N=C2\NC(=O)C(CC(=O)Nc3ccc(C)cc3C)S2)c1` (stereo not drawn), the GI50 is 97.7 µM (inactive) in test [1]; > 100 µM (inactive) in test [2]; > 100 µM (inactive) in test [3]; > 100 µM (inactive) in test [4]; 53.1 µM (inactive) in [5]; > 100 µM (inactive) in test [6]. The GI50 in [7] is > 100 µM (inactive); in [8], 49.8 µM (inactive).
In the case of `Cc1c2ccc3ccccc3c2c[n+]2ccccc12`, the GI50 in test [1] was 19.7 µM (inactive); in [2], 16.2 µM (inactive); in [3], 24 µM (inactive); in test [4], 4.48 µM (inactive); in test [6] it was 5.36 µM (inactive); in [7], 28.8 µM (inactive). Besides, the GI50 in test [8] is 4.35 µM (inactive).
For the compound `Cn1cnc([N+](=O)[O-])c1Sc1nccc(O)n1`, the GI50 in test [2], in test [3], in test [4], in [5], in [6] and in test [9] was > 100 µM (inactive) each time. For the same compound, the GI50 in test [7] and in test [8] was > 100 µM (inactive) throughout.
With `CC1=C2C(O)C(C(C)CO)C(O)CC2(C)C(O)CC1` (stereo not drawn), the GI50 in test [1], in [2], in test [3], in [4], in test [6] and in test [9] was > 100 µM (inactive) in each case. The GI50 in [7] and in test [8] was > 100 µM (inactive) each time.
With `CC(=O)OC(CCC1(C)OC1COc1ccc(CCNC(=O)C=C(C)C)cc1)C(C)(C)OC(C)=O` (stereo not drawn), the GI50 in [1] was 62.1 µM (inactive); in test [2], 22.5 µM (inactive); in test [4], 19.7 µM (inactive); in test [5] it was 23.2 µM (inactive); in [6], 12.7 µM (inactive); in [7] it was 24.5 µM (inactive). For the same compound, in test [8], the GI50 is 0.19 µM (active).
Turning to `O=NN(CCCl)C(=O)NC1CCC(CC2CCC(NC(=O)N(CCCl)N=O)CC2)CC1` (stereo not drawn), the GI50 in test [1] was > 74.1 µM (inactive); in [2] it was 21.9 µM (inactive); in test [3], 23.6 µM (inactive); in test [4] it was 2.7 µM (inactive); in [5] it was 13 µM (inactive); in [6], 36.1 µM (inactive). Moreover, the GI50 in test [9] is 41.7 µM (inactive); in test [7], 29.5 µM (inactive); in test [8], 24.4 µM (inactive).
On to `C/C(=C1/N=C(c2cc([N+](=O)[O-])ccc2Cl)N(C2=CC=C(Cl)CC2)C1=O)c1cc2ccccc2oc1=O`, for which the GI50 in test [1] was 18.7 µM (inactive); in test [3], 20 µM (inactive); in [4] it was 45.5 µM (inactive); in test [6], 13.1 µM (inactive); in test [9], 56 µM (inactive); in [7], 47.9 µM (inactive). Besides, in test [8], the GI50 was 19.3 µM (inactive).
For the compound `O=P1(Oc2ccc(Cl)cc2Cl)Oc2ccc3ccccc3c2-c2c(ccc3ccccc23)O1`, the GI50 is 33.5 µM (inactive) in test [1]; 41.3 µM (inactive) in test [2]; 32.1 µM (inactive) in test [3]; 19.9 µM (inactive) in [4]; 24.5 µM (inactive) in test [5]; 32.4 µM (inactive) in test [7].
With `COC(=O)C1=C(C)N(NC(=O)c2ccccc2)C2(O)CCCC(=O)C12C` (stereo not drawn), the GI50 in test [1], in [2], in test [3], in [5], in [6] and in test [9] was > 100 µM (inactive) in each case. In addition, the GI50 in test [7] and in test [8] was > 100 µM (inactive) throughout.
For the compound `COc1ccc(/C(=N\NC(=O)NN)C(c2ccc(OC)cc2)C2(O)C(=O)Nc3c(Cl)cc(Cl)cc32)cc1` (stereo not drawn), the GI50 in [1], in test [3], in test [4], in [5], in test [6] and in [9] was > 100 µM (inactive) each time. Moreover, the results for the GI50 in test [7] and in test [8] were > 100 µM (inactive) and 90.8 µM (inactive), respectively.
Consider `O=[N+]([O-])c1cccc(C2=NOC3CCCC23)c1` (stereo not drawn), for which the GI50 in test [2], in [3], in test [4], in test [6], in test [7] and in test [8] was > 100 µM (inactive) throughout.
Take `CC(C)c1ccc(O)c(=O)cc1` [GAMMA-THUJAPLICIN]: the GI50 in test [1] was 3.99 µM (inactive); in [2], 3.89 µM (inactive); in test [3], 5.56 µM (inactive); in test [4] it was 6.46 µM (inactive); in test [5] it was 15.1 µM (inactive); in [6], 5.53 µM (inactive). The GI50 in [7] was 20 µM (inactive); in test [8], 2.92 µM (inactive).
For the compound `CC(=O)NC1COC(COC(=O)CCCCCCCCCCNC(=O)c2ccc([N+](=O)[O-])c3c(=O)c4ccccc4[nH]c23)C(O)C1OC(C)C(=O)NC(C(=O)NC(CCC(N)=O)C(=O)OCc1ccccc1)C(C)C` (stereo not drawn), the GI50 in [1] was 16.3 µM (inactive); in test [2] it was 8.69 µM (inactive); in test [3], 3.21 µM (inactive); in [4] it was 3.27 µM (inactive); in test [5] it was 5.41 µM (inactive); in test [6], 17.7 µM (inactive). For the same compound, the values for the GI50 in test [9], in [7] and in [8] were 27.7 µM (inactive), 10.2 µM (inactive) and 15.4 µM (inactive), respectively.
As for `O=C1CCCn2c3ccccc3c3ccnc1c32`, the GI50 is 51.3 µM (inactive) in test [1]; 46.6 µM (inactive) in test [2]; 38.3 µM (inactive) in [3]; 41.5 µM (inactive) in [4]; 25.4 µM (inactive) in test [5]; 44.8 µM (inactive) in test [7]. Moreover, the GI50 in [8] was 35 µM (inactive).
`CCOC(=O)/C(=C/c1ccccn1)C(=O)c1ccccc1`: the GI50 was 15.5 µM (inactive) in test [1]; 12.1 µM (inactive) in test [2]; 10.4 µM (inactive) in [3]; 13.5 µM (inactive) in test [4]; 16.1 µM (inactive) in test [5]; 11.1 µM (inactive) in [6]. The GI50 in test [9] was 13.6 µM (inactive); in [7] it was 17 µM (inactive); in test [8] it was 14.3 µM (inactive).
With `CCOC(OCC)(OCC)C(Br)CC` (stereo not drawn), the GI50 is 11.8 µM (inactive) in test [1]; 19.1 µM (inactive) in [2]; 22 µM (inactive) in [3]; > 100 µM (inactive) in test [4]; > 100 µM (inactive) in [5]; 51.9 µM (inactive) in [6]. Also, the results for the GI50 in test [9], in test [7] and in test [8] were > 100 µM (inactive), > 100 µM (inactive) and 12.5 µM (inactive), respectively.
Consider `CCN(CC)C(=S)SS(C)(=O)=O`, for which the GI50 is 20.3 µM (inactive) in test [2]; 18 µM (inactive) in [3]; 16.4 µM (inactive) in test [4]; 16.4 µM (inactive) in test [6]; 23.7 µM (inactive) in [7].
In the case of `C/C=C/CP(=O)(c1ccccc1)c1ccccc1`, the GI50 in test [1], in test [2], in test [3], in test [4], in test [5] and in [6] was > 100 µM (inactive) in each case. For the same compound, the GI50 in test [7] and in [8] was > 100 µM (inactive) each time.
On to `CCOC(=O)C12CC1(C(=O)OCC)C1CCC2C1` (stereo not drawn), for which the GI50 in test [2] was > 100 µM (inactive); in test [3], > 100 µM (inactive); in test [4] it was > 100 µM (inactive); in [6] it was > 100 µM (inactive); in [9] it was > 100 µM (inactive); in test [8], 74.3 µM (inactive).
For the compound `CC(=O)OCC1OC(Nc2nc(O)n(C)c(=O)c2-c2csc(N)n2)C(OC(C)=O)C(OC(C)=O)C1OC(C)=O` (stereo not drawn), the GI50 in test [1], in [3], in test [4], in test [6], in test [9] and in test [7] was > 100 µM (inactive) throughout. Also, in [8], the GI50 was > 100 µM (inactive).
On to `O=c1c2ccccc2sc2nc(O)nn12`, for which the GI50 in [1], in test [2], in test [3], in test [4], in [5] and in test [6] was > 100 µM (inactive) each time. Further, the GI50 in test [9] and in test [7] was > 100 µM (inactive) each time.
